ChEMBL document CHEMBL1201862, “PubChem BioAssay data set” (2004)
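A five-concentration, 48-hour dose response in 96-well plates underlies each endpoint, interpolated linearly between surrounding concentrations. GI50 marks 50% less growth.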 Activity calls are given as the source filed them. Cut-off read from the data, not from the text of the source: active = GI50 up to about 1.1 µM and inactive = higher.

Assays:
Assay in all cases: NCI anticancer screen, dose series, 48 h
Hs-578T = test system: Hs-578T
SK-MEL-2 = test system: SK-MEL-2
MDA-N = test system: MDA-N
EKVX = test system: EKVX
UACC-257 = test system: UACC-257
NCI/ADR-RES = test system: NCI/ADR-RES
OVCAR-8 = test system: OVCAR-8
SK-OV-3 = test system: SK-OV-3
OVCAR-4 = test system: OVCAR-4
MDA-MB-231 = test system: MDA-MB-231
Malme-3M = test system: Malme-3M
HCC 2998 = test system: HCC 2998
HCT-15 = test system: HCT-15
HOP-92 = test system: HOP-92
RPMI-8226 = test system: RPMI-8226
SNB-75 = test system: SNB-75
MCF7 = test system: MCF7
SF-295 = test system: SF-295
HL-60 = test system: HL-60

Row | SMILES | GI50 (Hs-578T) | GI50 (SK-MEL-2) | GI50 (MDA-N) | GI50 (EKVX) | GI50 (UACC-257) | GI50 (NCI/ADR-RES) | GI50 (OVCAR-8) | GI50 (SK-OV-3) | GI50 (OVCAR-4) | GI50 (MDA-MB-231) | GI50 (Malme-3M) | GI50 (HCC 2998) | GI50 (HCT-15) [µM] | GI50 (HOP-92) | GI50 (RPMI-8226) | GI50 (SNB-75) | GI50 (MCF7) | GI50 (SF-295) | GI50 (HL-60)
1 | CC1CCC2(CC1)N=C1CCC(C)CC1C1(CCC(C)CC1)N2 (configuration not stated) | > 100 µM (inactive) | > 100 µM (inactive) | 73.8 µM (inactive) | > 10 µM (inactive) | 83.6 µM (inactive) | > 100 µM (inactive) | > 100 µM (inactive) | > 100 µM (inactive) | > 100 µM (inactive) | > 100 µM (inactive) | > 100 µM (inactive) | 69 µM (inactive) | 84.7 | > 100 µM (inactive) | 82 µM (inactive) | 19.6 µM (inactive) | > 100 µM (inactive) | > 100 µM (inactive) | 43.8 µM (inactive)
2 | c1ncc(C23C4C5C6C4C2C6C53)[nH]1 (configuration not stated) | > 100 µM (inactive) | > 100 µM (inactive) | > 100 µM (inactive) | > 100 µM (inactive) | > 100 µM (inactive) | > 100 µM (inactive) | > 100 µM (inactive) | > 100 µM (inactive) | > 100 µM (inactive) | > 100 µM (inactive) | > 100 µM (inactive) | > 100 µM (inactive) | > 100 | > 100 µM (inactive) | > 100 µM (inactive) | > 100 µM (inactive) | > 100 µM (inactive) | > 100 µM (inactive) | > 100 µM (inactive)
3 | CCOC(=O)C1(C(=O)OCC)CC(=O)[C@@]2(C1)OCC[C@H]1OC(=O)C[C@H]12 | > 100 µM (inactive) | > 100 µM (inactive) | > 100 µM (inactive) | > 100 µM (inactive) | > 100 µM (inactive) | > 100 µM (inactive) | > 100 µM (inactive) | – | > 100 µM (inactive) | > 100 µM (inactive) | > 100 µM (inactive) | > 100 µM (inactive) | > 100 | > 100 µM (inactive) | > 100 µM (inactive) | > 100 µM (inactive) | > 100 µM (inactive) | > 100 µM (inactive) | > 100 µM (inactive)
4 | Oc1cccc2c1[nH]c1c(C3=C[C@@]4(O)CC/C=C\CCCCN5CC[C@@H]3[C@]3(CC6/C=C\CCCCN6[C@H]34)C5)nccc12 (some centres not stated) | 1.63 µM (inactive) | 1.47 µM (inactive) | 0.771 µM (active) | 1.23 µM (inactive) | 1.68 µM (inactive) | 2.17 µM (inactive) | 1.15 µM (inactive) | 1.94 µM (inactive) | 0.679 µM (active) | 1.19 µM (inactive) | 1.6 µM (inactive) | 0.384 µM (active) | 0.718 | 0.226 µM (active) | 0.61 µM (active) | 0.946 µM (active) | 0.7 µM (active) | 1.75 µM (inactive) | 0.667 µM (active)
5 | CCOc1ccccc1NC(=O)C(=O)C(/C(=N/N)C(=O)OC)c1nc2ccc([N+](=O)[O-])cc2nc1O (configuration not stated) | > 100 µM (inactive) | > 100 µM (inactive) | > 100 µM (inactive) | 97.5 µM (inactive) | > 100 µM (inactive) | > 100 µM (inactive) | > 100 µM (inactive) | > 100 µM (inactive) | > 100 µM (inactive) | > 100 µM (inactive) | > 100 µM (inactive) | > 100 µM (inactive) | > 100 | 46 µM (inactive) | > 100 µM (inactive) | 71.4 µM (inactive) | > 100 µM (inactive) | > 100 µM (inactive) | > 100 µM (inactive)
6 | CC(C(=O)n1ccnc1)N1c2ccccc2Sc2ccccc21 (configuration not stated) | > 100 µM (inactive) | > 100 µM (inactive) | > 100 µM (inactive) | 88.3 µM (inactive) | 79.4 µM (inactive) | 63.2 µM (inactive) | > 100 µM (inactive) | 97.7 µM (inactive) | > 100 µM (inactive) | 78.3 µM (inactive) | 83.6 µM (inactive) | – | 97.5 | 25.1 µM (inactive) | 65.3 µM (inactive) | 40.6 µM (inactive) | 53.1 µM (inactive) | > 100 µM (inactive) | 91.8 µM (inactive)
7 | COc1ccc2oc(=O)cc(C)c2c1 | > 100 µM (inactive) | > 100 µM (inactive) | > 100 µM (inactive) | 21 µM (inactive) | > 100 µM (inactive) | > 100 µM (inactive) | > 100 µM (inactive) | – | > 100 µM (inactive) | > 100 µM (inactive) | > 100 µM (inactive) | > 100 µM (inactive) | – | > 100 µM (inactive) | > 100 µM (inactive) | 88.5 µM (inactive) | > 100 µM (inactive) | > 100 µM (inactive) | > 100 µM (inactive)
8 | COc1ccccc1N1C(=O)/C(=C\c2cccc(Oc3ccccc3)c2)SC1c1ccccc1 (configuration not stated) | 39.4 µM (inactive) | 29.9 µM (inactive) | 23.9 µM (inactive) | 15.9 µM (inactive) | 31.3 µM (inactive) | 59.6 µM (inactive) | 31.3 µM (inactive) | 47.4 µM (inactive) | 30.6 µM (inactive) | > 100 µM (inactive) | 37.6 µM (inactive) | 25.7 µM (inactive) | 47.2 | 21.1 µM (inactive) | 24.6 µM (inactive) | 39.6 µM (inactive) | 21.5 µM (inactive) | 18.7 µM (inactive) | < 0.01 µM (active)
9 | O=c1c(Cc2c(O)ccc3ccccc23)nnc2sc(-c3nn4c(=O)c(Cc5c(O)ccc6ccccc56)nnc4s3)nn12 | 10.8 µM (inactive) | 13.4 µM (inactive) | > 100 µM (inactive) | 29.2 µM (inactive) | > 100 µM (inactive) | > 100 µM (inactive) | > 100 µM (inactive) | – | > 100 µM (inactive) | 32.6 µM (inactive) | > 100 µM (inactive) | > 100 µM (inactive) | > 100 | 38.1 µM (inactive) | > 100 µM (inactive) | 9.2 µM (inactive) | 18 µM (inactive) | – | 30.8 µM (inactive)
10 | CC(C)(C)OC(=O)C(C1NC(C(=O)O)C(C)(C)S1)N1C(=O)c2ccccc2C1=O (configuration not stated) | > 100 µM (inactive) | > 100 µM (inactive) | > 100 µM (inactive) | > 100 µM (inactive) | > 100 µM (inactive) | > 100 µM (inactive) | > 100 µM (inactive) | > 100 µM (inactive) | > 100 µM (inactive) | > 100 µM (inactive) | > 100 µM (inactive) | > 100 µM (inactive) | > 100 | > 100 µM (inactive) | > 100 µM (inactive) | > 100 µM (inactive) | > 100 µM (inactive) | > 100 µM (inactive) | > 100 µM (inactive)
11 | O=C(O)CC(Sc1ccccc1)c1ccccc1 (configuration not stated) | > 100 µM (inactive) | > 100 µM (inactive) | > 100 µM (inactive) | > 100 µM (inactive) | – | > 100 µM (inactive) | > 100 µM (inactive) | > 100 µM (inactive) | > 100 µM (inactive) | > 100 µM (inactive) | > 100 µM (inactive) | – | > 100 | > 100 µM (inactive) | > 100 µM (inactive) | > 100 µM (inactive) | > 100 µM (inactive) | > 100 µM (inactive) | > 100 µM (inactive)
12 | CC[C@@]1(O)C(=O)OCc2c1cc1n(c2=O)Cc2c-1nc1ccc(O)cc1c2CC[Si](C)(C)C | 0.681 µM (active) | 0.1 µM (active) | 0.0133 µM (active) | 0.041 µM (active) | 0.00275 µM (active) | 0.0489 µM (active) | 0.00716 µM (active) | < 0.001 µM (active) | 0.0291 µM (active) | 0.187 µM (active) | 0.016 µM (active) | 0.0174 µM (active) | 0.102 | 0.0682 µM (active) | 0.0131 µM (active) | < 0.001 µM (active) | < 0.001 µM (active) | 0.00131 µM (active) | < 0.001 µM (active)
13 | O=CC1OC(=O)c2cc(O)c(O)c(O)c2-c2c(cc(O)c(O)c2O)C(=O)OC1C1OC(=O)c2cc(O)c(O)c(O)c2-c2c(O)c(O)c3oc(=O)c4c(c(O)c(O)c5oc(=O)c2c3c54)-c2c(cc(O)c(O)c2O)C(=O)OCC1O (configuration not stated) | 44.7 µM (inactive) | > 100 µM (inactive) | 20.4 µM (inactive) | 16.9 µM (inactive) | 46.2 µM (inactive) | 36.8 µM (inactive) | 19.3 µM (inactive) | 50.6 µM (inactive) | 14.2 µM (inactive) | 13.9 µM (inactive) | 94.4 µM (inactive) | 33.4 µM (inactive) | 15.7 | 16.6 µM (inactive) | 57.8 µM (inactive) | 13.9 µM (inactive) | 19.6 µM (inactive) | 18.7 µM (inactive) | 20.9 µM (inactive)
14 | CCOC(=O)c1nc2cc(Cl)ccc2[nH]c1=O | > 100 µM (inactive) | > 100 µM (inactive) | > 100 µM (inactive) | > 100 µM (inactive) | > 100 µM (inactive) | > 100 µM (inactive) | > 100 µM (inactive) | > 100 µM (inactive) | > 100 µM (inactive) | > 100 µM (inactive) | > 100 µM (inactive) | > 100 µM (inactive) | > 100 | > 100 µM (inactive) | > 100 µM (inactive) | < 0.01 µM (active) | > 100 µM (inactive) | > 100 µM (inactive) | > 100 µM (inactive)
15 | COC1=CC(=O)C(C2CC(=O)c3c(O)cc(O)cc3O2)=CC1=O (configuration not stated) | 33.5 µM (inactive) | 17.4 µM (inactive) | 15.6 µM (inactive) | 16.6 µM (inactive) | 18.5 µM (inactive) | 21.7 µM (inactive) | 25.9 µM (inactive) | 36.8 µM (inactive) | 17.6 µM (inactive) | 12.2 µM (inactive) | 19.1 µM (inactive) | 16.8 µM (inactive) | 23.3 | 7.55 µM (inactive) | 10.9 µM (inactive) | 23.6 µM (inactive) | 22.9 µM (inactive) | 19.2 µM (inactive) | 2 µM (inactive)
